From patent US8431589B2, “2,4-diaminopyrimidine derivatives” (Novartis AG, priority 2002, dated 2013)

Experiments:
[1] = target: T1, recombinant hexahistidine-tagged human FAK kinase domain (Homo sapiens, UniProt Q05397); test: FAK assay (FRET, Biot-Y397 substrate); type: biochemical
T1 construct: the kinase domain of FAK (Met384-Gly706) from position 29 to 351; made in house; host or cells: baculovirus; Sf9 and ExpresSF+ insect cells
Description: All steps are performed in a 96-well black microtiter plate. Purified recombinant hexahistidine-tagged human FAK kinase domain is diluted with dilution buffer (50 mM HEPES, pH 7.5, 0.01% BSA, 0.05% Tween-20 in water) to a concentration of 94 ng/mL (2.5 nM). The reaction mixture is prepared by mixing 10 μL 5× kinase buffer (250 mM HEPES, pH 7.5, 50 μM Na3VO4, 5 mM DTT, 10 mM MgCl2, 50 mM MnCl2, 0.05% BSA, 0.25% Tween-20 in water), 20 μL water, 5 μL of 4 μM biotinylated peptide substrate (Biot-Y397) in aqueous solution, 5 μL of test compound in DMSO, and 5 μL of recombinant enzyme solution and incubated for 30 min at room temperature. The enzyme reaction is started by addition of 5 μL of 5 μM ATP in water and the mixture is incubated for 3 hours at 37° C. The reaction is terminated by addition of 200 μL of detection mixture (1 nM Eu-PT66, 2.5 μg/mL SA-(SL)APC, 6.25 mM EDTA in dilution buffer), and the FRET signal from europium to allophycocyanin is measured by ARVOsx+L (Perkin Elmer) after 30 min of incubation at room temperature. The ratio of fluorescence intensity of 665 nm to 615 nm is used as a FRET signal for data analysis in order to cancel the colour quenching effect by a test compound. The results are determined as percent inhibition of enzyme activity. […] IC50 values are determined by non-linear curve fit analysis using the OriginPro 6.1 program (OriginLab).

[2] = target: T2, human ZAP-70 protein tyrosine kinase (Homo sapiens, UniProt P43403); test: ZAP-70 kinase assay (homogenous, time-resolved FRET, LAT-11 substrate); type: biochemical; settings: 4 μM ATP
T2 construct: purchased Upstate Biotechnology, Lake Placid, N.Y
T2 sequence (P43403 1-619): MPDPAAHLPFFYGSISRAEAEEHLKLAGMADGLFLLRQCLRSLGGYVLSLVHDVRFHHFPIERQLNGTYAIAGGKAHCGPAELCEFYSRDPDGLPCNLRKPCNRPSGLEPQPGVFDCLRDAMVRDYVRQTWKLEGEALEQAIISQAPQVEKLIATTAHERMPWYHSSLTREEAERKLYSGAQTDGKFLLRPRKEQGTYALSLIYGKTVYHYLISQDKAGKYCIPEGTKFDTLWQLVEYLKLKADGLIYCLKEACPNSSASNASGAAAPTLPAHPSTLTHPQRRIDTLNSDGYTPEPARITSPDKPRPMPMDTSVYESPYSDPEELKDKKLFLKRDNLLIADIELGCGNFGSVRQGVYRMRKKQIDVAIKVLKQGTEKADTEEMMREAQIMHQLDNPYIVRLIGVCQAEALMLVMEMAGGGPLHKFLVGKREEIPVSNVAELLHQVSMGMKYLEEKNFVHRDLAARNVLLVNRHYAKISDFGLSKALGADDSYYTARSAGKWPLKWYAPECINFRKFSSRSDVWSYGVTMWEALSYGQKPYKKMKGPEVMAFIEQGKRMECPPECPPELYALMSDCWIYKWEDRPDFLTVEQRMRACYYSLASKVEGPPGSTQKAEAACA
Text: (§1) More particularly the compounds of the invention are active at the human ZAP-70, FAK and/or Syk protein tyrosine kinases.
(§2) ZAP-70, Lck and Syk are commercially available from Upstate Biotechnology, Lake Placid, N.Y.
Preparation of LAT-11 (SEQ ID NO:1): The peptide LAT-11 used as a substrate in the ZAP-70 kinase assay may be prepared as disclosed in Example 1A of WO 02/12275, the contents of which, particularly with reference to Example 1A, is incorporated herein by reference.
ZAP-70 Kinase assay: The activities of the agents of invention are determined in a homogenous ZAP-70 kinase assay based on time-resolved fluorescence resonance energy transfer. Briefly, 80 nM ZAP-70 are incubated with 80 nM Lck and 4 μM ATP in ZAP-70 kinase buffer (20 mM Tris, pH 7.5, 10 μM Na3VO4, 1 mM DTT, 1 mM MnCl2, 0.01% bovine serum albumin, 0.05% Tween 20) for 1 hour at room temperature in a siliconized polypropylene tube. Then, the selective Lck inhibitor PP2 (4-amino-5-(4-chloro-phenyl)-7-(t-butyl)pyrazolo[3,4-d]pyrimidine; Alexis Biochemicals) is added (final concentration 1.2 μM) and incubated for further 10 min. […] After 1 hour incubation at room temperature fluorescence is measured, e.g., on the Victor2 Multilabel Counter (Wallac) at 665 nm. […] The inhibition obtained in the presence of test compounds was calculated as percent inhibition of the high control. […]

[3] = tested on: Mouse mammary carcinoma 4T1 cells; test: Anchorage-independent tumor cell growth assay; type: cell-based; settings: Ultra low Attachment plates, 48 h, read-out: IC50, 50% inhibition of growth
Description: Mouse mammary carcinoma 4T1 cells (5×10^3) are plated in 96-well Ultra low Attachment plates (#3474, Corning Inc.) in […] of Dulbecco's modified eagle medium containing 10% FBS. Cells are cultured for 2 h and inhibitors are added at various concentrations in a final concentration of 0.1% DMSO. After 48 h, cell growth is assayed with the cell counting kit-8 (Wako Pure Chemical), which uses a water soluble tetrazolium salt WST8. Twenty μL of the reagent is added into each well and cells are further cultured for 2 h. The optical density is measured at 450 nm. The concentration of compound causing 50% inhibition of growth may thus be determined.

[4] = target: T3, human Syk protein tyrosine kinase (Homo sapiens, UniProt P43405); test: Syk kinase assay (heterogenous DELFIA, poly(Glu, Tyr) substrate); type: biochemical; settings: ATP 1 μM
T3 construct: purchased Upstate Biotechnology, Lake Placid, N.Y
Description: as §1, §2
Syk Kinase assay: The activities of the agents of invention are determined in a heterogenous Syk kinase assay based on the dissociation-enhanced lanthanide fluoroimmunoassay (DELFIA) technology. This method utilizes europium chelate-labelled anti-phosphotyrosine antibodies to detect phosphate transfer by Syk to a polymeric glutamic acid-tyrosine (Glu, Tyr) substrate coated onto microtiter plates as described (Braunwalder A F, Yarwood D R, Sills M A, Lipson K E. Measurement of the protein tyrosine kinase activity of c-src using time-resolved fluorometry of europium chelates. Anal. Biochem. 1996; 238(2):159-64). The amount of phosphorylation is then quantified with time-resolved, dissociation-enhanced fluorescence. Briefly, hundred μl of poly (Glu, Tyr) (4:1; 2 μg/ml in phosphate-buffered saline, PBS) are coated to ELISA plates overnight at room temperature. The poly (Glu, Tyr) solution is removed and 250 μl of 1% bovine serum albumin in PBS are added for one hour at room temperature. […] Fluorescence is determined at 615 nm (Victor2; Wallac). […] The inhibition obtained in the presence of test compounds was calculated as percent inhibition of the high control. […]

[5] = target: T4, FAK (Mus musculus, UniProt P34152); test: Phosphorylation levels of FAK at Tyr397 (sandwich ELISA) in 4T1 cells; type: cell-based; settings: 1 h incubation, read-out: IC50, 50% reduction of phosphorylation level of FAK (Tyr397)
T4 construct: endogenous in cells; host or cells: mouse mammary carcinoma 4T1 cells
T4 sequence (P34152 whole entry): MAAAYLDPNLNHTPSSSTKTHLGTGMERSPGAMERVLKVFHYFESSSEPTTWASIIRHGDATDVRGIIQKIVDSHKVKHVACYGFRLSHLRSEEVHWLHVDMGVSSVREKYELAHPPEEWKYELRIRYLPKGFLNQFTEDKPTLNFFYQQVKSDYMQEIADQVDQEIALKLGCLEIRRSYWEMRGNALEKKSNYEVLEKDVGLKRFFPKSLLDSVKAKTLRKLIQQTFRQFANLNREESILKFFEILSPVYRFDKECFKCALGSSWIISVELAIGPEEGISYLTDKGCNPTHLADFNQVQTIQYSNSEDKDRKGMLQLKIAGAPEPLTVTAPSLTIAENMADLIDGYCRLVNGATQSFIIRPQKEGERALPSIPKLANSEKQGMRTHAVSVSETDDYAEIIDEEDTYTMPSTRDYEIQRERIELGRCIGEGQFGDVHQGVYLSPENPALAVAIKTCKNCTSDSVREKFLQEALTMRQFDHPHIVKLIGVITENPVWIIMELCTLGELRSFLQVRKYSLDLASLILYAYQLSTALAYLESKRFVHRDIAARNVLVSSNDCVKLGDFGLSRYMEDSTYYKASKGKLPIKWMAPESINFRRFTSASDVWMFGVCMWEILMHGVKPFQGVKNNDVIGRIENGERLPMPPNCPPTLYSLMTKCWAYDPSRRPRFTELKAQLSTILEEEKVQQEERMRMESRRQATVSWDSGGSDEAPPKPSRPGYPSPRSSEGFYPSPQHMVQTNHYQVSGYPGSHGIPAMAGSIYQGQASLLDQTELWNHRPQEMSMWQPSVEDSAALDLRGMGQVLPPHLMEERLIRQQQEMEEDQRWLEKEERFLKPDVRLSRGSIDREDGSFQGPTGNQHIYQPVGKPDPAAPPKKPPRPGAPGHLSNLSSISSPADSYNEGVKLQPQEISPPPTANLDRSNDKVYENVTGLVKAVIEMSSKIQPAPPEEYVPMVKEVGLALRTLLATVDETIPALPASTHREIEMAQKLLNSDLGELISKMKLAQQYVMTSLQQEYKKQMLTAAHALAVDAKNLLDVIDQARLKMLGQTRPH
Description: Phosphorylation levels of FAK at Tyr397 are quantified by the sandwich ELISA. Mouse mammary carcinoma 4T1 cells (1×10^5) are plated in wells of 96-well culture plates and incubated with or without various concentrations of a compound of formula I for 1 h in Dulbecco's modified eagle medium containing 10% FBS. The medium is removed and cells are lysed in 200 μL 50 mM Tris-HCl, pH 7.4, containing 1% NP-40, 0.25% sodium deoxycholate, 150 mM NaCl, 1 mM EDTA, 1 mM PMSF, 1 mM Na3VO4, 1 mM NaF, 1 μg/mL aprotinin, 1 μg/mL leupeptin and 1 μg/mL pepstatin. After centrifugation, the supernatants are subjected to a sandwich ELISA to quantify the phosphorylated FAK and total FAK. […] After washing with TBSN (20 mM Tris-HCl, pH 8.3, containing 300 mM NaCl, 0.1% SDS and 0.05% NP-40), total FAK is detected with 100 μL of 1 μg/ml anti-FAK polyclonal antibody (#65-6140, Upstate Biology Inc.), and phosphorylated FAK is detected with 100 μL of […] anti-phosphorylated FAK (Y397) antibody (Affinity BioReagents, #OPA1-03071) in BlockAce diluted at 1:10 with H2O. […] Absorbance at 405 nm is measured after 20 min incubation at room temperature. […]

T1 sequence (Q05397 384-706): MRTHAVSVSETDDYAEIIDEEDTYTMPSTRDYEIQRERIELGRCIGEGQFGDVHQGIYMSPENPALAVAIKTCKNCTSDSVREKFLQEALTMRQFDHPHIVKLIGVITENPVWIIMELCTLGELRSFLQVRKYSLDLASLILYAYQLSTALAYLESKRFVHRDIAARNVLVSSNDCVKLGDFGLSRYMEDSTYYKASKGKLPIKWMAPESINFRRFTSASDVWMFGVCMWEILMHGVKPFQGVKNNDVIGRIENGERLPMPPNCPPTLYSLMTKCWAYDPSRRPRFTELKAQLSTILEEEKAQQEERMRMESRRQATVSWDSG

`CNS(=O)(=O)c1ccccc1Nc1nc(Nc2cccc(C)c2)ncc1Br` [Example 188] showed an IC50 [1] of 15 nM.

For `COc1cc(Nc2nccc(Nc3cccc(OC)c3S(N)(=O)=O)n2)cc(OC)c1OC` [Example 4, 2-Methoxy-6-[2-(3,4,5-trimethoxy-phenylamino)-pyrimidin-4-ylamino]-benzenesulfonamide], the IC50 [2] was 12 nM.

Work on `CNS(=O)(=O)c1ccccc1Nc1nc(Nc2cc(OC)c(OC)c(OC)c2)ncc1Cl` [Example 213] yielded an IC50 [3] of 16 nM.

In the case of `Cc1cccc(Nc2ccnc(Nc3cccc(OCCn4ccnc4)c3)n2)c1S(N)(=O)=O` [Example 128], the IC50 [4] is reported as 150 nM.

With `CNS(=O)(=O)c1ccccc1Nc1nc(Nc2ccc3cn[nH]c3c2)ncc1Br` [Example 198] the IC50 [5] was 43 nM.

`COc1cc(Nc2nccc(Nc3cccc(C)c3S(N)(=O)=O)n2)cc(OC)c1OC` [Example 3, 2-methyl-6-[2-(3,4,5-Trimethoxy-phenylamino)-pyrimidin-4-ylamino]-benzenesulfonamide] gave a melting point of 72 to 75 °C.

Work on `CNS(=O)(=O)c1ccccc1Nc1nc(Nc2cc(OC)c(OC)c(OC)c2)ncc1C(F)(F)F` [Example 208] yielded an IC50 [1] of 1 nM.

With `CNS(=O)(=O)c1cc(F)ccc1Nc1nc(Nc2cc(OC)c(OC)c(OC)c2)ncc1Br` [Example 190] the IC50 [5] was 440 nM.
